Measurements: PMC10406941 (Scientific Reports, 2023)
Read-outs that look alike come from different tables or passages of the source.

Experiments:
S1R [1] = molecular target: T1, S1R (Cavia porcellus, UniProt Q60492); details: cited from earlier work
T1 construct: [^3H]-( +)-Pentazocine on guinea pig brain according to the generally accepted protocol; from tissue; host or cells: guinea pig brain

SARS-CoV-2 [2] = assay: Anti-SARS-CoV-2 activity, detection of viral genomes by RT-qPCR on infected cells; assay type: cell-based; details: for anti-SARS-CoV-2 activity in words: Vero E6 cells; for fold reduction in anti-SARS-CoV-2 activity: relative to PB28, Vero E6 cells
S2R [3] = molecular target: T2, S2R (Rattus norvegicus, UniProt Q5U3Y7); details: [3H]-DTG, rat liver, masking with (+)-Pentazocine, cited from earlier work
T2 construct: [^3H]-DTG on rat liver masking with ( +)-Pentazocine according to the generally accepted protocol; from tissue; host or cells: rat liver
T2 sequence (Q5U3Y7 1-176): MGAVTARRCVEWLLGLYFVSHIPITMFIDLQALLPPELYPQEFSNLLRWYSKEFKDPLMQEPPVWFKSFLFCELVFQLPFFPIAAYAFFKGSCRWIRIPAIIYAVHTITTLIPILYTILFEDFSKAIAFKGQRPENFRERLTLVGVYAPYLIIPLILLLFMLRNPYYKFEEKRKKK

S1R [4] = molecular target: T1, S1R; assay: S1R radioligand binding assay, [3H]-(+)-Pentazocine on guinea pig brain; details: Table 1, compound 6 (no reference cited)
S2R [5] = molecular target: T2, S2R; assay: S2R radioligand binding assay, [3H]-DTG on rat liver masking with (+)-Pentazocine; details: Table 1, compound 6 (no reference cited)
SARS-CoV-2 [6] = details: read-out: IC90 anti-SARS-CoV-2 activity in vitro; cited from earlier work
[7] = Table 1, [3H]-(+)-Pentazocine, guinea pig brain, mean of three experiments in duplicate, read-out: Ki nM S1R
[8] = Table 1, RT-qPCR of viral genomes, Vero E6 cells infected with SARS-CoV-2, one representative experiment of at least three
[9] = Table 1, mean of three experiments in duplicate
[10] = Table 1, RT-qPCR of viral genomes, Vero E6 cells infected with SARS-CoV-2, one representative experiment of at least three, read-out: IC50 (μM) SARS-CoV-2
[11] = Table 3, [3H]-(+)-Pentazocine, guinea pig brain, read-out: Ki nM S1R
[12] = Table 3, RT-qPCR of viral genomes, Vero E6 cells infected with SARS-CoV-2, read-out: IC50 (μM) SARS-CoV-2
[13] = Table 4, [3H]-(+)-Pentazocine, guinea pig brain, read-out: Ki Nm S1R
[14] = Table 4, RT-qPCR of viral genomes, Vero E6 cells infected with SARS-CoV-2

T1 sequence (Q60492 whole entry): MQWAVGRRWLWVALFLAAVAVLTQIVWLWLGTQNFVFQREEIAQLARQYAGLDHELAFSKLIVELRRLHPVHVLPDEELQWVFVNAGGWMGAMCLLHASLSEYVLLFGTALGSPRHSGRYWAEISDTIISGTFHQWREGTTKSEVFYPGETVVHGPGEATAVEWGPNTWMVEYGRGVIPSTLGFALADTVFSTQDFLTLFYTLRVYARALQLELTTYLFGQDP

SMILES	Ki (S1R [1]; [7]) [nM]	anti-SARS-CoV-2 activity in words (SARS-CoV-2 [2])	Ki (S2R [3]; [9]) [nM]	IC50 (SARS-CoV-2 [2]; [10]) [µM]	further results
COc1cccc2c1CCCC2N1CCN(C2CCCCC2)CC1 (racemic) [Compound 1]	0.4	loss of activity	7.9	–	IC50 (μM) SARS-CoV-2 (SARS-CoV-2 [2]; [8]): NOT ACTIVE
COc1cccc2c1CCCC2CN1CCN(C2CCCCC2)CC1 (racemic) [Compound 2]	0.31	–	16.4	5.9	fold reduction in anti-SARS-CoV-2 activity (SARS-CoV-2 [2]): 20 fold
COc1cccc2c1CCCC2CCN1CCN(C2CCCCC2)CC1 (racemic) [Compound 3]	1.57	–	21.1	12.6	fold reduction in anti-SARS-CoV-2 activity (SARS-CoV-2 [2]): 40 fold
COc1cccc2c1CCCC2CCCCN1CCN(C2CCCCC2)CC1 (racemic) [Compound 4]	–	–	3.58	0.32	–
COc1cccc2c1CCCC2CCCCCN1CCN(C2CCCCC2)CC1 (racemic) [Compound 5]	1.52	–	0.35	0.19	–
COc1cccc2c1CCCC2CCCCCCN1CCN(C2CCCCC2)CC1 (racemic) [Compound 6]	–	–	–	1.32	Ki (S1R [4]): 3.07 nM; fold reduction in anti-SARS-CoV-2 activity (SARS-CoV-2 [2]): threefold less potent; Ki (S2R [5]): 103 nM
c1ccc2c(c1)CCCC2CCCN1CCN(C2CCCCC2)CC1 (racemic) [Compound 7]	0.61	–	0.68	0.438	–
c1ccc2c(c1)CCCC2CCCCN1CCN(C2CCCCC2)CC1 (racemic) [Compound 8]	–	–	14.6	0.317	–
c1ccc2c(c1)CCCC2CCCCCN1CCN(C2CCCCC2)CC1 (racemic) [Compound 9]	1.45	–	7.85	0.19	–
COc1ccc2c(c1)CCCC2CCCN1CCN(C2CCCCC2)CC1 (racemic) [Compound 10]	0.36	–	5.42	0.47	Ki (S1R [1]; as quoted in the text of the docking section, read-out: Ki (S1R)): 0.38 nM
Oc1cccc2c1CCCC2CCCN1CCN(C2CCCCC2)CC1 (racemic) [Compound 15]	–	complete loss of antiviral activity	2.66	–	IC50 (μM) SARS-CoV-2 (SARS-CoV-2 [2]; [8]): NOT ACTIVE
Oc1ccc2c(c1)CCCC2CCCN1CCN(C2CCCCC2)CC1 (racemic) [Compound 16]	0.69	complete loss of antiviral activity	1.12	–	IC50 (μM) SARS-CoV-2 (SARS-CoV-2 [2]; [8]): NOT ACTIVE
COc1cccc2c1CCCC2CCCN1CCN(C)CC1 (racemic) [Compound 23]	–	–	–	–	Ki (S1R [1]; [11]): 17.8 nM; IC50 (SARS-CoV-2 [2]; [12]): 5.78 µM; fold reduction in anti-SARS-CoV-2 activity (SARS-CoV-2 [2]): 20 fold; Ki (S2R [3]; Table 3): 663 nM
CCCN1CCN(CCCC2CCCc3c(OC)cccc32)CC1 (racemic) [Compound 24]	–	–	–	–	Ki (S1R [1]; [11]): 9.6 nM; IC50 (SARS-CoV-2 [2]; [12]): 2.26 µM; fold reduction in anti-SARS-CoV-2 activity (SARS-CoV-2 [2]): 8 fold; Ki (S2R [3]; Table 3): 42.5 nM
CCC(CC)N1CCN(CCCC2CCCc3c(OC)cccc32)CC1 (racemic) [Compound 25]	–	no anti-SARS-CoV-2 activity	–	–	Ki (S1R [1]; [11]): 12 nM; IC50 (μM) SARS-CoV-2 (SARS-CoV-2 [2]; Table 3, RT-qPCR of viral genomes, Vero E6 cells infected with SARS-CoV-2): NOT ACTIVE; Ki (S2R [3]; Table 3): 12.7 nM
COc1cccc2c1CCC[C@H]2CCCN1CCN(C2CCCCC2)CC1 [( +)-S-PB28]	–	–	1.18	0.455	–
COc1cccc2c1CCC[C@@H]2CCCN1CCN(C2CCCCC2)CC1 [(-)-R-PB28]	–	–	0.49	0.309	–
c1ccc2c(CCCN3CCN(C4CCCCC4)CC3)cccc2c1 [Compound 11]	2.16	–	0.69	0.94	–
c1ccc2c(CCCCCN3CCN(C4CCCCC4)CC3)cccc2c1 [Compound 12]	2.4	–	0.57	0.52	–
COc1cccc2c(CCCN3CCN(C4CCCCC4)CC3)cccc12 [Compound 13]	–	–	9.24	0.306	–
COc1ccc2c(CCCN3CCN(C4CCCCC4)CC3)cccc2c1 [Compound 14]	3.16	complete loss of activity	9.02	–	IC50 (μM) SARS-CoV-2 (SARS-CoV-2 [2]; [8]): NOT ACTIVE
Oc1ccc2c(CCCN3CCN(C4CCCCC4)CC3)cccc2c1 [Compound 17]	6.78	complete loss of antiviral activity	26.4	–	IC50 (μM) SARS-CoV-2 (SARS-CoV-2 [2]; [8]): NOT ACTIVE
Oc1ccc2cccc(CCCN3CCN(C4CCCCC4)CC3)c2c1 [Compound 18]	5.48	complete loss of antiviral activity	11.8	–	IC50 (μM) SARS-CoV-2 (SARS-CoV-2 [2]; [8]): NOT ACTIVE
COc1cccc2c1CCCC2CCCN1CCN(C2CCCCC2)CC1 (centres unmarked) [PB28, 1-Cyclohexyl-4-[3-(5-methoxy-1,2,3,4-tetrahydronaphthalen-1-yl)propyl]piperazine, reference compound]	–	–	–	–	IC50 (SARS-CoV-2 [2]; Severe acute respiratory syndrome coronavirus 2, Vero C1008, read-out: IC50 (μM) SARS-CoV-2): 0.299 µM; IC90 (SARS-CoV-2 [6]): 280 nM
COc1ccc2c(c1)CCCC2CCCCN1CCC(C)CC1 (centres unmarked) [PB190, reference compound]	–	did not demonstrate any antiviral effect	–	–	Ki (S1R [1]; [13]): 0.42 nM; IC50 (μM) SARS-CoV-2 (SARS-CoV-2 [2]; [14]): NOT ACTIVE; Ki (S2R [3]; Table 4): 36.3 nM
COc1ccc2c(CCCCN3CCC(C)CC3)cccc2c1 [PB212, reference compound]	–	did not demonstrate any antiviral effect	–	–	Ki (S1R [1]; [13]): 0.03 nM; IC50 (μM) SARS-CoV-2 (SARS-CoV-2 [2]; [14]): NOT ACTIVE; Ki (S2R [3]; Table 4): 17.9 nM
